Laboratory results: publication PMC11345769, “(SiFA)SeFe: A Hydrophilic Silicon-Based Fluoride Acceptor Enabling Versatile Peptidic Radiohybrid Tracers” (Journal of medicinal chemistry, 2024)

Tests used:
[1] = stability of 18F-labeled model bioconjugates, lutetium labeling conditions; assay type: physicochemical; conditions: buffer, pH 5.5
Procedure: (§1) To a solution of 10 μL aqueous sodium acetate buffer (pH 5.5) and 80 μL 0.04 M HCl were added 10 μL of the respective ^18F-labeled (SiFA)SeFe-bioconjugate. The solution was kept at 90 °C and for each time point (0, 30, 60, 90, 120 min) 10 μL were analyzed via Radio-TLC. The half-life was calculated from the ratio between free fluorine-18 and labeled peptide.

[2] = stability of 18F-labeled model bioconjugates, reverse isotopic exchange; assay type: physicochemical; conditions: buffer, pH 6.5
Procedure: To 10 μL of the respective ^18F-labeled (SiFA)SeFe-bioconjugate, a solution of 10 μL 10 mM NaF (pH = 6.5) and 80 μL H2O was added. The solution was kept at RT and for each time point (0, 30, 60, 90, 120 min) 10 μL was analyzed via Radio-TLC. The half-life was calculated from the ratio between free fluorine-18 and labeled peptide.

[3] = stability of 18F-labeled model bioconjugates, physiological conditions; assay type: physicochemical; conditions: buffer, pH 7.4
Procedure: as §1, with “of 90” for “of 10”, “aqueous K2CO3” for “aqueous sodium acetate”, “(pH 7.4)” for “(pH 5.5) and 80 μL 0.04 M HCl”, “at 37” for “at 90”

human serum albumin = biological target: T1, human serum albumin (Homo sapiens, UniProt P02768); assay: human serum albumin binding by HPAC; assay type: in vitro ADME; conditions: non-radiolabeled compounds, n=1
T1 construct: purchased Daicel, Tokio, Japan Chiralpak HSA column (50 × 3 mm, 5 μm, H13 h-2433)
Procedure: High performance affinity chromatography (HPAC) was used to determine representative values for HSA binding of the ligands and their references, since it can influence the distribution and pharmacokinetics of radiopharmaceuticals.[43],[44]
HSA binding studies were performed according to a previously published procedure, using RP-HPLC and HSA which is solid-phase fixed on a Chiralpak HSA column (50 × 3 mm, 5 μm, H13 h-2433, Daicel, Tokio, Japan).[51] A flow rate of 0.5 mL/min at RT was used. A freshly prepared 50 mM aqueous solution of NH4OAc (pH 6.9) was used as mobile phase A, and isopropanol (HPLC grade, VWR, Germany) was used as mobile phase B. A gradient of 100% A (0 to 3 min) followed by 80% A (3 to 40 min) was used for the experiments. Before the analysis of all compounds, the column was calibrated with nine reference substances having HSA binding known from the literature in the range of 13 to 99%.[51],[52] All compounds, were prepared in a 1/1 mixture (v/v) of isopropanol and a 50 mM aqueous solution of NH4OAc (pH 6.9) at a final concentration of 0.5 mg/mL. Nonlinear regression was performed using OriginPro 2016G software (North-ampton, United States).

[4] = stability in human serum (radio-RP-HPLC); assay type: in vitro ADME; conditions: 37 °C; for Intact tracer in human serum, 24 h: n=3; for remaining at 24 h, 25 MBq/mL: human, serum, n=3, read-out: Intact tracer in human serum, 24 h
Procedure: Stability studies in human serum were also performed by incubating the ^18F-labeled ligands [^18F][^natGa]Ga-(SiFA)-SeFe-rhTATE1, [^18F][^natGa]Ga-(SiFA)SeFe-rhTATE2, [^18F][^natLu]Lu-(SiFA)SeFe-rhTATE3 and [^18F][^natLu]Lu-(SiFA)BA-rhTATE3 (for 1 h), as well as the ^177Lu-labeled ligands [^177Lu]Lu-(SiFA)SeFe-rhTATE3 and [^177Lu]Lu-(SiFA)BA-rhTATE3 for 1 and 24 h at 37 °C (Figure 3D). Afterward, the samples were analyzed for the intact tracer by radio-RP-HPLC (see SI, Table S4).
5 MBq of the respective ^18F-/^177Lu-labeled compound was added to 200 μL of human serum (from a healthy volunteer) and incubated at 37 °C for 1 h. After the addition of 50 vol % of cold ethanol and 150 vol % of cold MeCN, centrifugation was performed at 13.000 rpm for 20 min. The supernatant was decanted and centrifuged at 13.000 rpm for 10 min in a centrifuge tube with a 0.45 μm cellulose acetate filter. […] of the remaining filtrate was injected into RP-HPLC and the number of intact radioligand was quantified.

[5] = lutetium labeling conditions, 18F-labeled, Radio-TLC, read-out: Half-life, pH 5.5, 90 °C (converted)
[6] = reverse isotopic exchange, 18F-labeled, Radio-TLC, read-out: Half-life, pH 6.5, 1 mM aq. NaF, RT
[7] = physiological conditions, 18F-labeled, Radio-TLC, read-out: Half-life, pH 7.4, 37 °C

T1 sequence (P02768 25-609): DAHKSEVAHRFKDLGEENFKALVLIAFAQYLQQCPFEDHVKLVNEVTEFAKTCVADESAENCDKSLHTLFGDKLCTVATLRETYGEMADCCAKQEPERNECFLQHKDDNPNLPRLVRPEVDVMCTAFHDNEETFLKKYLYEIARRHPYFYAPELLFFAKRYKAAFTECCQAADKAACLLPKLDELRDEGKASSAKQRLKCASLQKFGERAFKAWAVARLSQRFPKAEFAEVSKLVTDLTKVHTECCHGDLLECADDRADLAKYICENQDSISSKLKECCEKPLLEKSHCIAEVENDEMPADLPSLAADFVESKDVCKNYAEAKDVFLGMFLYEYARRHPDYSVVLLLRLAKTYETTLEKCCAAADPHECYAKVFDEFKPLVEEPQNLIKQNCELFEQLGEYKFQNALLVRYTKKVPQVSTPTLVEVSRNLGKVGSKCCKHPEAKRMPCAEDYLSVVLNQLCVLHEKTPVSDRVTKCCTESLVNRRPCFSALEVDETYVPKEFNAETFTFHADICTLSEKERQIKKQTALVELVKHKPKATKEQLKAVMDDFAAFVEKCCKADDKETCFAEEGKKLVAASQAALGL

CC(C)(C)[Si](F)(c1cc(CN)cc(C(=O)NCC(=O)N[C@@H](CCCCN)C(=O)O)c1)C(C)(C)C [1X1, (3-(aminomethyl)-5-(di-tert-butylfluorosilyl)benzoyl)glycyl-L-lysine]
half-life [1]: 38 ± 0.9 h | half-life [2]: 10 ± 1.1 min | half-life [3]: 27 ± 2.1 min

CC(C)(C)[Si](F)(c1cc(CN)cc(C(=O)NCC(=O)N[C@@H](CC(=O)O)C(=O)O)c1)C(C)(C)C [1X2, (3-(aminomethyl)-5-(di-tert-butylfluorosilyl)benzoyl)glycyl-L-as-partic acid]
half-life [1]: 37 ± 11 h | half-life [2]: 25 ± 6.1 min | half-life [3]: 299 ± 12 min

CC(C)(C)[Si](F)(c1cc(CN)cc(C(=O)NCC(=O)N[C@@H](Cc2ccc(O)cc2)C(=O)O)c1)C(C)(C)C [1X3, (3-(aminomethyl)-5-(di-tert-butylfluorosilyl)benzoyl)glycyl-L-tyrosine]
half-life [1]: 43 ± 2.8 h | half-life [2]: 27 ± 2.2 min | half-life [3]: 14 ± 3 min

CC(C)(C)[Si](F)(c1cc(CNC(=O)[C@@H](N)CCCCN)cc(C(=O)NCC(=O)N[C@@H](CCCCN)C(=O)O)c1)C(C)(C)C [2X1, (3-(di-tert-butylfluorosilyl)-5-(((S)-2,6-diaminohexanamido)-methyl)benzoyl)glycyl-L-lysine]
half-life [1, 5]: 25 ± 5.5 h | half-life [2, 6]: 14 ± 0.8 min | half-life [3, 7]: 18 ± 2.1 min

CC(C)(C)[Si](F)(c1cc(CNC(=O)[C@@H](N)CCCCN)cc(C(=O)NCC(=O)N[C@@H](CC(=O)O)C(=O)O)c1)C(C)(C)C [2X2, (3-(di-tert-butylfluorosilyl)-5-(((S)-2,6-diaminohexanamido)-methyl)benzoyl)glycyl-L-aspartic acid]
half-life [1, 5]: 49 ± 7.1 h | half-life [2, 6]: 29 ± 0.8 min | half-life [3, 7]: 43 ± 1.3 min

CC(C)(C)[Si](F)(c1cc(CNC(=O)[C@@H](N)CCCCN)cc(C(=O)NCC(=O)N[C@@H](Cc2ccc(O)cc2)C(=O)O)c1)C(C)(C)C [2X3, (3-(di-tert-butylfluorosilyl)-5-(((S)-2,6-diaminohexanamido)-methyl)benzoyl)glycyl-L-tyrosine]
half-life [1, 5]: 48 ± 13 h | half-life [2, 6]: 20 ± 2.9 min | half-life [3, 7]: 21 ± 6 min

CC(C)(C)[Si](F)(c1cc(CNC(=O)[C@@H](N)CCC(=O)O)cc(C(=O)NCC(=O)N[C@@H](CCCCN)C(=O)O)c1)C(C)(C)C [3X1, (3-(((S)-2-amino-4-carboxybutanamido)methyl)-5-(di-tert-butylfluorosilyl)benzoyl)glycyl-L-lysine]
half-life [1, 5]: 40 ± 0.6 h | half-life [2, 6]: 34 ± 2.1 min | half-life [3, 7]: 57 ± 1.3 min

CC(C)(C)[Si](F)(c1cc(CNC(=O)[C@@H](N)CCC(=O)O)cc(C(=O)NCC(=O)N[C@@H](CC(=O)O)C(=O)O)c1)C(C)(C)C [3X2, (3-(((S)-2-amino-4-carboxybutanamido)methyl)-5-(di-tert-butylfluorosilyl)benzoyl)glycyl-L-aspartic acid]
half-life [1, 5]: 59 ± 5.2 h | half-life [2, 6]: 90 ± 3.6 min | half-life [3, 7]: 597 ± 43 min

CC(C)(C)[Si](F)(c1cc(CNC(=O)[C@@H](N)CCC(=O)O)cc(C(=O)NCC(=O)N[C@@H](Cc2ccc(O)cc2)C(=O)O)c1)C(C)(C)C [3X3, (S)-4-amino-5-((3-((2-(((S)-1-carboxy-2-(4-hydroxyphenyl)-ethyl)amino)-2-oxoethyl)carbamoyl)-5-(di-tert-butylfluorosilyl)-benzyl)amino)-5-oxopentanoic acid]
half-life [1, 5]: 42 ± 7.8 h | half-life [2, 6]: 57 ± 1.6 min | half-life [3, 7]: 29 ± 0.8 min

CC(=O)N[C@@H]1[C@@H](O)[C@H](O)[C@@H](CO)O[C@H]1NC(=O)C[C@H](NC(=O)CON=CCCC[N+](C)(C)Cc1ccc([Si](F)(C(C)(C)C)C(C)(C)C)cc1)C(=O)N[C@@H](CC(=O)O)C(=O)N[C@@H](CC(=O)O)C(=O)NCCOCCOCC(=O)N[C@H](Cc1ccccc1)C(=O)N[C@H]1CSSC[C@@H](C(=O)N[C@H](C(=O)O)[C@@H](C)O)NC(=O)[C@H]([C@@H](C)O)NC(=O)[C@H](CCCCN)NC(=O)[C@@H](Cc2c[nH]c3ccccc23)NC(=O)[C@H](Cc2ccc(O)cc2)NC1=O [SiFAlin-TATE, reference compound]
HSA binding (HPAC) (human serum albumin): 92%

C[C@@H](O)[C@H](NC(=O)[C@@H]1CSSC[C@H](NC(=O)[C@@H](Cc2ccccc2)NC(=O)COCCOCCNC(=O)[C@@H](CNC(=O)CN2CCN(CC(=O)O)CCN(CC(=O)O)CCN(CC(=O)O)CC2)NC(=O)COCCOCCNC(=O)c2ccc([Si](F)(C(C)(C)C)C(C)(C)C)cc2)C(=O)N[C@@H](Cc2ccc(O)cc2)C(=O)N[C@H](Cc2c[nH]c3ccccc23)C(=O)N[C@@H](CCCCN)C(=O)N[C@@H]([C@@H](C)O)C(=O)N1)C(=O)O [[177Lu]Lu-(SiFA)BA-rhTATE3, metal not drawn]
Intact tracer in human serum, 24 h [4]: 60 ± 1.0% | remaining at 24 h, 25 MBq/mL [4]: 60%

C[C@@H](O)[C@H](NC(=O)[C@@H]1CSSC[C@H](NC(=O)[C@@H](Cc2ccccc2)NC(=O)COCCOCCNC(=O)[C@@H](CNC(=O)CN2CCN(CC(=O)O)CCN(CC(=O)O)CCN(CC(=O)O)CC2)NC(=O)COCCOCCNC(=O)c2cc(CN)cc([Si](F)(C(C)(C)C)C(C)(C)C)c2)C(=O)N[C@@H](Cc2ccc(O)cc2)C(=O)N[C@H](Cc2c[nH]c3ccccc23)C(=O)N[C@@H](CCCCN)C(=O)N[C@@H]([C@@H](C)O)C(=O)N1)C(=O)O [[177Lu]Lu-(SiFA)SeFe-rhTATE3, metal not drawn]
Intact tracer in human serum, 24 h [4]: 94 ± 3.0% | remaining at 24 h, 25 MBq/mL [4]: 94%

C[C@@H](O)[C@H](NC(=O)[C@@H]1CSSC[C@H](NC(=O)[C@@H](Cc2ccccc2)NC(=O)CN2CCN(CC(=O)O)CCN(CC(=O)NC[C@@H](NC(=O)c3cc(CN)cc([Si](F)(C(C)(C)C)C(C)(C)C)c3)C(=O)O)CCN(CC(=O)O)CC2)C(=O)N[C@@H](Cc2ccc(O)cc2)C(=O)N[C@H](Cc2c[nH]c3ccccc23)C(=O)N[C@@H](CCCCN)C(=O)N[C@@H]([C@@H](C)O)C(=O)N1)C(=O)O [[natGa]Ga-(SiFA)SeFe-rhTATE1, metal not drawn]
HSA binding (HPAC) (human serum albumin): 99% | HSA binding (HPAC) (human serum albumin; listed as [^natGa]Ga-(SiFA)SeFe-rhTATE1): 98−99%

C[C@@H](O)[C@H](NC(=O)[C@@H]1CSSC[C@H](NC(=O)[C@@H](Cc2ccccc2)NC(=O)CN2CCN(CC(=O)O)CCN(CC(=O)NC[C@@H](NC(=O)c3cc(CNC(=O)C[C@@H](N)C(=O)O)cc([Si](F)(C(C)(C)C)C(C)(C)C)c3)C(=O)O)CCN(CC(=O)O)CC2)C(=O)N[C@@H](Cc2ccc(O)cc2)C(=O)N[C@H](Cc2c[nH]c3ccccc23)C(=O)N[C@@H](CCCCN)C(=O)N[C@@H]([C@@H](C)O)C(=O)N1)C(=O)O [[natGa]Ga-(SiFA)SeFe-rhTATE2, metal not drawn]
HSA binding (HPAC) (human serum albumin): 99% | HSA binding (HPAC) (human serum albumin; listed as [^natGa]Ga-(SiFA)SeFe-rhTATE2): 98−99%

C[C@@H](O)[C@H](NC(=O)[C@@H]1CSSC[C@H](NC(=O)[C@@H](Cc2ccccc2)NC(=O)COCCOCCNC(=O)[C@@H](CNC(=O)CN2CCN(CC(=O)O)CCN(CC(=O)O)CCN(CC(=O)O)CC2)NC(=O)COCCOCCNC(=O)c2cc(CN)cc([Si](F)(C(C)(C)C)C(C)(C)C)c2)C(=O)N[C@@H](Cc2ccc(O)cc2)C(=O)N[C@H](Cc2c[nH]c3ccccc23)C(=O)N[C@@H](CCCCN)C(=O)N[C@@H]([C@@H](C)O)C(=O)N1)C(=O)O [[natLu]Lu-(SiFA)SeFe-rhTATE3, metal not drawn]
HSA binding (HPAC) (human serum albumin): 98% | HSA binding (HPAC) (human serum albumin; listed as [^natLu]Lu-(SiFA)SeFe-rhTATE3): 98−99%
